Results filed as inconclusive are left out.

The subject of this assay is BDF1 mice, B16 melanoma s.c., survival/tumor T/C. Description: NCI In Vivo Anticancer Drug Screen. Data for tumor model B16 Melanoma (subcutaneous) in B6D2F1 (BDF1) mice. How it is done:
The antitumor activity of compounds was measured in mice bearing transplantable tumors. Survival or tumor size were measured and the results are expressed as the measurement made in the treated group (T) divided by the measurement made in the vehicle treated control group (C). The tumor model used in this assay is B16 Melanoma (subcutaneous) in B6D2F1 (BDF1) mice

For the compound `O=NN(CCF)C(=O)NC1CCCCC1`, the T/C was 123 % of control (endpoint: median survival time, dose: 0.63 mg/kg/injection, schedule: Q01HX012 (ip), vehicle: Klucel (hydroxypropylcellulose) (HPC), higher = longer survival); 107 % of control (endpoint: median survival time, dose: 1.25 mg/kg/injection, schedule: Q01HX012 (ip), vehicle: Klucel (hydroxypropylcellulose) (HPC), higher = longer survival); 96 % of control (endpoint: median survival time, dose: 1.25 mg/kg/injection, schedule: Q02HX006 (ip), vehicle: Klucel (hydroxypropylcellulose) (HPC), higher = longer survival); 96 % of control (endpoint: median survival time, dose: 1.88 mg/kg/injection, schedule: Q03HX004 (ip), vehicle: Klucel (hydroxypropylcellulose) (HPC), higher = longer survival); 101 % of control (endpoint: median survival time, dose: 2.5 mg/kg/injection, schedule: Q02HX006 (ip), vehicle: Klucel (hydroxypropylcellulose) (HPC), higher = longer survival); 98 % of control (endpoint: median survival time, dose: 3.11 mg/kg/injection, schedule: Q01DX007 (ip), vehicle: Klucel (hydroxypropylcellulose) (HPC), higher = longer survival). In addition, the T/C is 242 % of control (endpoint: median survival time, dose: 5.0 mg/kg/injection, schedule: Q01HX012 (ip), vehicle: Klucel (hydroxypropylcellulose) (HPC), higher = longer survival); 115 % of control (endpoint: median survival time, dose: 5.0 mg/kg/injection, schedule: Q02HX006 (ip), vehicle: Klucel (hydroxypropylcellulose) (HPC), higher = longer survival); 102 % of control (endpoint: median survival time, dose: 5.18 mg/kg/injection, schedule: Q01DX007 (ip), vehicle: Klucel (hydroxypropylcellulose) (HPC), higher = longer survival); 107 % of control (endpoint: median survival time, dose: 7.5 mg/kg/injection, schedule: Q01DX001 (ip), vehicle: Klucel (hydroxypropylcellulose) (HPC), higher = longer survival); 115 % of control (endpoint: median survival time, dose: 7.5 mg/kg/injection, schedule: Q03HX004 (ip), vehicle: Klucel (hydroxypropylcellulose) (HPC), higher = longer survival); 261 % of control (endpoint: median survival time, dose: 10.0 mg/kg/injection, schedule: Q02HX006 (ip), vehicle: Klucel (hydroxypropylcellulose) (HPC), higher = longer survival). The T/C is, setting by setting: (endpoint: median survival time, dose: 14.4 mg/kg/injection, schedule: Q01DX007 (ip), vehicle: Klucel (hydroxypropylcellulose) (HPC), higher = longer survival) 120 % of control; (endpoint: median survival time, dose: 15.0 mg/kg/injection, schedule: Q01DX001 (ip), vehicle: Klucel (hydroxypropylcellulose) (HPC), higher = longer survival) 119 % of control; (endpoint: median survival time, dose: 15.0 mg/kg/injection, schedule: Q03HX004 (ip), vehicle: Klucel (hydroxypropylcellulose) (HPC), higher = longer survival) 157 % of control; (endpoint: median survival time, dose: 15.8 mg/kg/injection, schedule: Q01DX007 (ip), vehicle: Klucel (hydroxypropylcellulose) (HPC), higher = longer survival) 115 % of control; (endpoint: median survival time, dose: 20.0 mg/kg/injection, schedule: Q02HX006 (ip), vehicle: Klucel (hydroxypropylcellulose) (HPC), higher = longer survival) 88 % of control; (endpoint: median survival time, dose: 23.7 mg/kg/injection, schedule: Q01DX007 (ip), vehicle: Klucel (hydroxypropylcellulose) (HPC), higher = longer survival) 68 % of control. Moreover, the T/C is 164 % of control (endpoint: median survival time, dose: 30.0 mg/kg/injection, schedule: Q01DX001 (ip), vehicle: Klucel (hydroxypropylcellulose) (HPC), higher = longer survival); 326 % of control (endpoint: median survival time, dose: 30.0 mg/kg/injection, schedule: Q03HX004 (ip), vehicle: Klucel (hydroxypropylcellulose) (HPC), higher = longer survival); 69 % of control (endpoint: median survival time, dose: 35.6 mg/kg/injection, schedule: Q01DX007 (ip), vehicle: Klucel (hydroxypropylcellulose) (HPC), higher = longer survival); 60 % of control (endpoint: median survival time, dose: 53.3 mg/kg/injection, schedule: Q01DX007 (ip), vehicle: Klucel (hydroxypropylcellulose) (HPC), higher = longer survival); 238 % of control (endpoint: median survival time, dose: 60.0 mg/kg/injection, schedule: Q01DX001 (ip), vehicle: Klucel (hydroxypropylcellulose) (HPC), higher = longer survival); 55 % of control (endpoint: median survival time, dose: 80.0 mg/kg/injection, schedule: Q01DX007 (ip), vehicle: Klucel (hydroxypropylcellulose) (HPC), higher = longer survival). Besides, the T/C runs as follows: (endpoint: median tumor weight (est.), dose: 1.25 mg/kg/injection, schedule: Q01HX012 (ip), vehicle: Klucel (hydroxypropylcellulose) (HPC), higher = larger tumour) 59 % of control; (endpoint: median tumor weight (est.), dose: 1.25 mg/kg/injection, schedule: Q02HX006 (ip), vehicle: Klucel (hydroxypropylcellulose) (HPC), higher = larger tumour) 114 % of control; (endpoint: median tumor weight (est.), dose: 1.88 mg/kg/injection, schedule: Q03HX004 (ip), vehicle: Klucel (hydroxypropylcellulose) (HPC), higher = larger tumour) 61 % of control; (endpoint: median tumor weight (est.), dose: 2.5 mg/kg/injection, schedule: Q01HX012 (ip), vehicle: Klucel (hydroxypropylcellulose) (HPC), higher = larger tumour) 10 % of control; (endpoint: median tumor weight (est.), dose: 2.5 mg/kg/injection, schedule: Q02HX006 (ip), vehicle: Klucel (hydroxypropylcellulose) (HPC), higher = larger tumour) 67 % of control; (endpoint: median tumor weight (est.), dose: 3.75 mg/kg/injection, schedule: Q03HX004 (ip), vehicle: Klucel (hydroxypropylcellulose) (HPC), higher = larger tumour) 83 % of control. The T/C was 26 % of control (endpoint: median tumor weight (est.), dose: 5.0 mg/kg/injection, schedule: Q02HX006 (ip), vehicle: Klucel (hydroxypropylcellulose) (HPC), higher = larger tumour); 110 % of control (endpoint: median tumor weight (est.), dose: 7.5 mg/kg/injection, schedule: Q01DX001 (ip), vehicle: Klucel (hydroxypropylcellulose) (HPC), higher = larger tumour); 70 % of control (endpoint: median tumor weight (est.), dose: 7.5 mg/kg/injection, schedule: Q03HX004 (ip), vehicle: Klucel (hydroxypropylcellulose) (HPC), higher = larger tumour); 70 % of control (endpoint: median tumor weight (est.), dose: 15.0 mg/kg/injection, schedule: Q01DX001 (ip), vehicle: Klucel (hydroxypropylcellulose) (HPC), higher = larger tumour).

In the case of `O=C(NP(=O)(N1CC1)N1CC1)c1cc(I)ccc1I`, the T/C was 96 % of control (endpoint: median survival time, dose: 1.0 mg/kg/injection, schedule: Q02DX009 (ip), vehicle: saline with Tween-80, higher = longer survival); 103 % of control (endpoint: median survival time, dose: 1.0 mg/kg/injection, schedule: Q02DX009 (ip), vehicle: saline, higher = longer survival); 98 % of control (endpoint: median survival time, dose: 4.0 mg/kg/injection, schedule: Q01DX001 (oral), vehicle: saline with Tween-80, higher = longer survival); 95 % of control (endpoint: median survival time, dose: 4.0 mg/kg/injection, schedule: Q02DX009 (ip), vehicle: saline with Tween-80, higher = longer survival); 180 % of control (endpoint: median survival time, dose: 4.0 mg/kg/injection, schedule: Q02DX009 (ip), vehicle: saline, higher = longer survival); 92 % of control (endpoint: median survival time, dose: 8.0 mg/kg/injection, schedule: Q01DX001 (oral), vehicle: saline with Tween-80, higher = longer survival). In addition, the T/C is 88 % of control (endpoint: median survival time, dose: 8.0 mg/kg/injection, schedule: Q02DX009 (ip), vehicle: saline with Tween-80, higher = longer survival); 153 % of control (endpoint: median survival time, dose: 8.0 mg/kg/injection, schedule: Q02DX009 (ip), vehicle: saline, higher = longer survival); 91 % of control (endpoint: median survival time, dose: 16.0 mg/kg/injection, schedule: Q01DX001 (oral), vehicle: saline with Tween-80, higher = longer survival); 117 % of control (endpoint: median survival time, dose: 16.0 mg/kg/injection, schedule: Q02DX009 (ip), vehicle: saline with Tween-80, higher = longer survival); 180 % of control (endpoint: median survival time, dose: 16.0 mg/kg/injection, schedule: Q02DX009 (ip), vehicle: saline, higher = longer survival); 93 % of control (endpoint: median survival time, dose: 32.0 mg/kg/injection, schedule: Q01DX001 (oral), vehicle: saline with Tween-80, higher = longer survival). Besides, the T/C is 97 % of control (endpoint: median survival time, dose: 32.0 mg/kg/injection, schedule: Q02DX009 (ip), vehicle: saline, higher = longer survival); 105 % of control (endpoint: median survival time, dose: 64.0 mg/kg/injection, schedule: Q01DX001 (oral), vehicle: saline with Tween-80, higher = longer survival); 88 % of control (endpoint: median survival time, dose: 512.0 mg/kg/injection, schedule: Q01DX001 (oral), vehicle: saline with Tween-80, higher = longer survival).

For the compound `NNC(=O)c1ccncc1`, the T/C runs as follows: (endpoint: median survival time, dose: 64.0 mg/kg/injection, schedule: Q01DX009 (ip), vehicle: saline, higher = longer survival) 116 % of control; (endpoint: median survival time, dose: 128.0 mg/kg/injection, schedule: Q01DX009 (ip), vehicle: saline, higher = longer survival) 88 % of control.

For the compound `CNc1ncnc2c1cnn2C`, the T/C is 92 % of control (endpoint: median survival time, dose: 10.0 mg/kg/injection, schedule: Q01DX009 (ip), vehicle: saline, higher = longer survival) and 103 % of control (endpoint: median survival time, dose: 20.0 mg/kg/injection, schedule: Q01DX009 (ip), vehicle: saline, higher = longer survival).

As to `CO[C@H](C(=O)[C@@H](O)[C@@H](C)O)[C@@H]1Cc2cc3cc(OC4CC(OC5CC(O)C(O)C(C)O5)C(O)C(C)O4)c(C)c(O)c3c(O)c2C(=O)[C@H]1OC1CC(OC2CC(OC3CC(C)(O)C(O)C(C)O3)C(O)C(C)O2)C(O)C(C)O1` (some centres not stated), the T/C was 100 % of control (endpoint: median survival time, dose: 0.12 mg/kg/injection, schedule: Q01DX009 (ip), vehicle: saline, higher = longer survival); 114 % of control (endpoint: median survival time, dose: 0.25 mg/kg/injection, schedule: Q01DX009 (ip), vehicle: saline, higher = longer survival); 116 % of control (endpoint: median survival time, dose: 0.5 mg/kg/injection, schedule: Q01DX009 (ip), vehicle: saline, higher = longer survival); 118 % of control (endpoint: median survival time, dose: 1.0 mg/kg/injection, schedule: Q01DX009 (ip), vehicle: saline, higher = longer survival); 104 % of control (endpoint: median survival time, dose: 3.8 micrograms/kg/injection, schedule: Q01DX009 (ip), vehicle: water, higher = longer survival); 107 % of control (endpoint: median survival time, dose: 7.5 micrograms/kg/injection, schedule: Q01DX009 (ip), vehicle: water, higher = longer survival). In addition, the T/C was 101 % of control (endpoint: median survival time, dose: 15.0 micrograms/kg/injection, schedule: Q01DX009 (ip), vehicle: water, higher = longer survival); 114 % of control (endpoint: median survival time, dose: 30.0 micrograms/kg/injection, schedule: Q01DX009 (ip), vehicle: water, higher = longer survival); 93 % of control (endpoint: median survival time, dose: 60.0 micrograms/kg/injection, schedule: Q01DX009 (ip), vehicle: water, higher = longer survival); 91 % of control (endpoint: median survival time, dose: 120.0 micrograms/kg/injection, schedule: Q01DX009 (ip), vehicle: water, higher = longer survival); 86 % of control (endpoint: median survival time, dose: 250.0 micrograms/kg/injection, schedule: Q01DX009 (ip), vehicle: water, higher = longer survival).

`O=C1C=CC(=O)O1` (tested in a mixture with another compound): the T/C by setting is: (endpoint: median survival time, dose: 6.25 mg/kg/injection, schedule: Q01DX009 (ip), vehicle: other, higher = longer survival) 92 % of control; (endpoint: median survival time, dose: 12.5 mg/kg/injection, schedule: Q01DX009 (ip), vehicle: other, higher = longer survival) 101 % of control; (endpoint: median survival time, dose: 25.0 mg/kg/injection, schedule: Q01DX009 (ip), vehicle: other, higher = longer survival) 120 % of control.

For the origin of these results see PubChem BioAssay AID194 (DTP/NCI, 2004).
